Data as given in patent US11266149B2, “Herbicidal compositions” (University of Durham, priority 2016, dated 2022).
“Also recorded” adds a separate entry of the source.

How the values were obtained:
[1] = system: Conyza sumatrensis leaf discs; experiment: Leaf discs floated on glyphosate solutions, phytotoxicity / cell death; format: cell-based
Protocol: (§1) Plant material—Arabidopsis thaliana ecotype Columbia-0 was used in all experiments that utilised Arabidopsis. For spray experiments, many seeds were sown in compost inside pots with a base area of […]. The plants were treated with herbicide formulations by spraying when they were 2-3 weeks old. To obtain leaf discs, individual plants were sown in single pots and grown for 4 weeks. Leaf discs of 1-cm diameter were cored from fully expanded leaves. Glyphosate-resistant and susceptible biotypes of Conyza sumatrensis [(Retz.) E. Walker] were obtained from an olive grove in Italy. For spraying experiments, many plants were sown in compost inside pots with a base area of 81 cm^2. Plants were spray-treated at 2 weeks from sowing. For leaf disc experiments, individual plants were sown in single pots and grown for 8 weeks before coring 1-cm diameter leaf discs from fully expanded leaves. All plants were grown in a 16 h photoperiod (˜200 μmol·m^−2·s^−1) at 22° C.
(§2) Chemicals—Shikimic acid and pure glyphosate were purchased from Sigma-Aldrich (Dorset, UK). These were used to make stock solutions in water that were adjusted to pH 5.5 and used for treatment of leaf discs. Shikimate-3-phosphate trisodium salt was purchased from Santa Cruz Biotechnology (Dallas, Tex.). Gallup® 360 (Barclay Chemicals Manufacturing Ltd, Dublin, Ireland), a formulation of 360 g/L glyphosate, was used for spray treatments after diluting down to the desired rate.
(§3) Treatments—Leaf discs of 1 cm-diameter were cored from plants and floated on 10 mL solutions inside Petri dishes. A minimum of 5 replicate discs per treatment arising from 5 independent plants were used. For dark incubation, the Petri dishes were wrapped in aluminium foil to exclude light. Leaf discs were harvested at time-points indicated in the Figure legends for photographing or for shikimic acid analysis. For spray treatments, glyphosate was formulated in 3 mL with enough Gallup® to achieve the desired rate on a surface area of 36 cm^2 or 81 cm^2 pots. A commercial herbicide enhancer oil Activator-G™ (Agrigem Ltd., Market Rasen, UK) was added as an adjuvant to spray at a final rate of 1 L/ha. Shikimate-3-phosphate was added to a final concentration of 500 μM in the 3 mL. Control plants were sprayed with water containing Activator-G only.
While studying programmed cell death, we noted that light is a crucial factor in the activation of plant cell death (Chivasa et al., 2009; Wang et al., 2012; Smith et al., 2014). We wondered if deprivation of light could also block glyphosate toxicity. To investigate this, we used a previously published in vitro assay (Teaster and Hoagland, 2013) in which leaf discs are floated over glyphosate solutions of desired concentration.

[2] = system: Conyza sumatrensis leaf discs; experiment: Shikimic acid accumulation in leaf discs; format: cell-based
Protocol: as §3
Shikimic acid analysis—Leaf discs floating on treatment solutions were blotted dry, added to microfuge tubes containing 125 μL of 0.25 N HCL before snap-freezing in liquid nitrogen and storing at −20° C. Samples were thawed at room temperature, vortexed for 5 min, and then incubated at 60° C. for 15 min. Aliquots of 25 μL were withdrawn and mixed with 100 μL of 0.25% (w/v) periodic acid/0.25% m-periodate in fresh microfuge tubes. After 30 min incubation at 37° C., 100 μL of 0.6 N NaOH/0.22 M Na2SO3 were added and the volume made up to 1 mL with distilled water. The shikimic acid in the samples was determined by spectrophotometric measurements at 382 nm against a reagent only blank and using a calibration curve of shikimic acid standards. The shikimic acid accumulating in response to glyphosate treatment was calculated as the difference between the reading from mock-treated control leaf discs and the glyphosate-treated discs. Values were expressed as μg/mL shikimic acid.

Arabidopsis leaf discs = experiment: Shikimic acid accumulation in Arabidopsis leaf discs; format: cell-based, Arabidopsis thaliana; conditions: 25 μM glyphosate
Protocol: as §3, with “Control plants were sprayed with water containing Activator-G only.” left out
Shikimic acid analysis—Leaf discs floating on treatment solutions were blotted dry, added to microfuge tubes containing 125 μL of 0.25 N HCL before snap-freezing in liquid nitrogen and storing at −20° C. […] The shikimic acid in the samples was determined by spectrophotometric measurements at 382 nm against a reagent only blank and using a calibration curve of shikimic acid standards. The shikimic acid accumulating in response to glyphosate treatment was calculated as the difference between the reading from mock-treated control leaf discs and the glyphosate-treated discs. Values were expressed as μg/mL shikimic acid. […]

[3] = system: Arabidopsis shikimate pathway genes; experiment: Quantitative real-time PCR of shikimate pathway genes in leaf discs; format: cell-based, Arabidopsis thaliana
Protocol: Gene expression analysis—RNA was extracted from leaf tissues using the Spectrum Plant Total RNA kit (Sigma-Aldrich) according to the manufacturer's instructions. Each sample was a pool of five 1 cm-diameter leaf discs arising from 5 independent plants. First strand cDNA synthesis was performed using 4 μg total RNA and oligod(T) using Promega (Southampton, UK) GoScript Reverse Transcription System. Quantitative real-time polymerase chain reaction was performed using SensiFast reagent kit (Bioline, London, UK) on a Rotorgene-Q (Qiagen, Crawley, UK). Each 20 μL reaction contained 10 μL SensiFast reagent, 5 μL cDNA template that had been diluted 1:8, and 8 pmoles each primer (forward and reverse primers). Cycling conditions used were as follows: denaturation at 95° C. for 2 mins followed by 40 cycles of 95° C. for 10 sec, annealing at 56° C. for 15 sec, and extension at 72° C. for 25 sec. Data analysis was performed using REST2009 (Qiagen, Crawley, UK) using ACTIN2 (At3g18780) and EIF4 (At3g13920) as reference control genes. Triplicate samples per treatment per time-point were analysed in order to calculate a mean and standard deviation.
Arabidopsis leaf discs were floated on 25 μM glyphosate solutions and incubated in light or total darkness. Samples were harvested at various intervals within 72 h of treatment for quantification of shikimic acid and analysis of gene expression using quantitative real-time PCR. […] All three DAPS genes were differentially regulated, only one of the five putative SK genes responded to glyphosate, both EPSPS genes were responsive, and the chorismate synthase (CS) genes responded as well (FIG. 6). Up-regulation of the shikimate pathway components triggered by blockading flux with glyphosate is a typical metabolic response.

Arabidopsis plants = experiment: Spray treatment of Arabidopsis plants; format: in vivo, Arabidopsis thaliana
Protocol: as §1, §2, §3
Next we turned our attention to the inexplicable retardation of shikimate conversion to shikimate-3-phosphate during exposure to glyphosate. We proposed the hypothesis that shikimate-3-phosphate is a critical component required for glyphosate to be phytotoxic and that glyphosate-susceptible plants attempt to block its formation in order to avoid death. We sprayed 2-week-old Arabidopsis plants with a formulation of glyphosate at different rates with or without shikimate-3-phosphate as an additive. […]

[4] = system: Glyphosate-resistant (GR) and susceptible (GS) C. sumatrensis plants; experiment: Cut shoots placed in glyphosate solution with or without gluconic acid; format: in vivo, Conyza sumatrensis; conditions: 100 μM glyphosate only, ten days (FIG. 8)
Protocol: Glyphosate-resistant (GR) and susceptible (GS) C. sumatrensis plants were germinated in soil and transferred to solutions of 100 μM glyphosate with or without 5 mM gluconic acid.
Because the pentose phosphate pathway gene GntK responds to glyphosate, we tested if intermediates in the pathway might also influence glyphosate toxicity (FIG. 8). Glyphosate resistant (GR) and glyphosate susceptible (GS) Conyza sumatrensis were germinated in soil and the shoots cut off at the base of the stem and placed in 2 mL of 100 μM glyphosate with or without gluconic acid at various concentrations. […] Cessation of growth and development of chlorosis are key hallmarks of glyphosate toxicity.

[5] = 25° C.; cited from earlier work
Galium mollugo cells = conditions: glyphosate-treated Galium mollugo cells; cited from earlier work
[6] = system: phenylalanine ammonia-lyase (PAL); conditions: Buckwheat PAL inhibition; cited from earlier work
[7] = glyphosate, dark incubation (FIG. 6)
[8] = glyphosate-treated leaf discs (FIG. 6)

## O=C(O)CNCP(=O)(O)O [glyphosate, N-[phosphonomethyl] glycine]
[1]; 1 mM glyphosate, dark incubation, 3 days (FIG. 2C)
  phytotoxic effects at much higher glyphosate concentration: still requires light for phytotoxicity; also recorded: dark-incubation suppressed the phytotoxic effects
[1]; incubated in complete darkness, 100 μM glyphosate, 14 days (FIG. 2A)
  phytotoxic effects of glyphosate on leaf discs: protected from the phytotoxic effects
[1]; resistant biotype, 100 μM glyphosate on its own (FIG. 4A)
  viability of leaf discs: did not affect the viability
[1]; susceptible and resistant biotypes (FIG. 3)
  shikimate accumulation and cell death by biotype: activates shikimate accumulation and cell death in the susceptible, but not resistant biotype
[1]; susceptible biotype, leaf discs floated on glyphosate
  time until cell death (chlorosis, browning) easily visible: 10 to 14 days
[2]; continuous dark incubation (FIG. 2B)
  shikimic acid accumulation in leaf tissues: suppressed shikimic acid accumulation
[2]; glyphosate 25-200 μM, one week (FIG. 3B)
  shikimic acid level, susceptible versus resistant biotype: significantly higher levels of shikimic acid than the resistant biotype
[2]; light-dark cycle, one week after treatment (FIG. 2B)
  shikimic acid concentration in leaf tissues: massive rise
[2]; susceptible C. sumatrensis, within 3 days of exposure to glyphosate
  maximum concentration of shikimic acid accumulating: 10 to 15 mM
Arabidopsis leaf discs; dark incubation (FIG. 5)
  shikimic acid accumulation: suppressed shikimic acid accumulation
Arabidopsis leaf discs; incubated in light, within 72 h (FIG. 5)
  shikimic acid accumulation: significant accumulation of shikimic acid
[3]; [7]
  expression of At2g16790 in the dark: also stimulated in the dark
  glyphosate-induced stimulation of other genes in the dark: dark incubation suppressed glyphosate-induced stimulation
[3]; glyphosate, in light (FIG. 6)
  expression of DAHPS, SK, EPSPS and CS genes: significant changes in the expression
[3]; [8]
  change in gene expression of At2g16790: over 30 fold
  change in gene expression of all other genes: below 6 fold
Arabidopsis plants; 2-week-old plants, Gallup 360 formulation (FIG. 7A)
  symptoms after foliar application by spraying: causes chlorosis and then cell death of apical meristems
Arabidopsis plants; glyphosate 18 g/ha, spray, 3 weeks (FIG. 7B)
  effects on plant growth: no effects on plant growth
Arabidopsis plants; glyphosate 36 g/ha, spray, 3 weeks (FIG. 7B)
  effects on Arabidopsis: very modest effects
[4]; GR plants
  growth and chlorosis of GR plants: have grown with expanded healthy and green leaves; also recorded: remained healthy and green
[4]; GS plants
  growth and chlorosis of GS plants: stunted and chlorotic; also recorded: stopped growing and developed chlorosis, which eventually led to tissue death
[5]
  solubility in water: 1.16 % by weight
Galium mollugo cells
  estimated cellular shikimic acid: 20 to 23 mM

## O=C([O-])C1=C[C@@H](OP(=O)([O-])[O-])[C@@H](O)[C@H](O)C1.[Na+].[Na+].[Na+] [Shikimate-3-phosphate, Shikimate-3-phosphate trisodium salt]
Arabidopsis plants; 500 μM shikimate-3-phosphate on its own, spray (FIG. 7C)
  adverse effects on Arabidopsis: did not have any adverse effects

## O=C(O)C1=C[C@@H](O)[C@@H](O)[C@H](O)C1 [shikimic acid, Shikimic acid]
[1]; with glyphosate, shikimic acid below 1-5 mM, 7 days (FIG. 4B)
  breaking of glyphosate resistance at lower shikimic acid concentrations: unable to
[1]; with glyphosate, within 7 days of application (FIG. 4B)
  shikimic acid concentrations able to break glyphosate resistance: 1 to 5 mM
[1]; without glyphosate, up to 15 mM
  phytotoxicity of shikimic acid on its own: not phytotoxic; also recorded: did not cause any phytotoxicity

## NO[C@@H](Cc1ccccc1)C(=O)O [L-α-aminooxy-β-phenylpropionic acid]
[6]
  phenylalanine accumulation, light versus dark: three-fold higher phenylalanine accumulation in light than in the dark
